The source of these data is patent US6730503B1 (Roche Vitamins Inc., priority 1996, dated 2004).

The subject of one data set is Enzyme A′. Briefly: Effect of metals and inhibitors on enzyme activity, PMS-DCIP assay. In kind it is biochemical, G. oxydans DSM No. 4025.
The next data set concerns Enzyme A. The data set is described as above. Type of data set: biochemical, G. oxydans DSM No. 4025.
Another data set relates to Enzyme B. The data set is described as above. Type of data set: biochemical, G. oxydans DSM No. 4025.
The subject of a further data set is Enzyme A″. Described as above. In kind it is biochemical, G. oxydans DSM No. 4025.
Substrate in data set [1]: OCC1(O)OC[C@H](O)[C@@H](O)[C@@H]1O
The data set is described as follows: purified protein, by the assay type. To be noted: other: Enzyme A.

[2] abbreviates: 5 mM compound, 30 minutes at 25° C., substrate n-Propanol, relative to blank incubation.
Setting [3] is: 5 mM compound, 30 minutes at 25° C., substrate L-Sorbose, relative to blank incubation.
Setting [4] is: 5 mM compound, 30 minutes at 25° C., substrate D-Sorbitol, relative to blank incubation.
Where [5] appears, read: 1 mM compound, 30 minutes at 25° C., substrate n-Propanol, relative to blank incubation.
The mark [6] stands for this setting: 1 mM compound, 30 minutes at 25° C., substrate L-Sorbose, relative to blank incubation.
Setting [7] is: 1 mM compound, 30 minutes at 25° C., substrate D-Sorbitol, relative to blank incubation.
The mark [8] stands for this setting: 0.5 mM compound, 30 minutes at 25° C., substrate L-Sorbose, relative to blank incubation.

Where two headings read alike, the source gives them in different places.

As to `[Cl-].[Cl-].[Zn+2]` [ZnCl2], the Relative remaining activity turned out to be 6.1 in the data set on Enzyme A′ (setting [2]), 1.5 in the data set with Enzyme A (setting [3]), 0.0 in the data set on Enzyme B (setting [4]) and 19.2 in the data set with Enzyme A″ (setting [3]).
As for `[Cl-].[Cl-].[Co+2]` [CoCl2], the Relative remaining activity with Enzyme A′ worked out at 7.9; with Enzyme A, 16.6; with Enzyme B, 23.6; in the data set with Enzyme A″, 46.9.
As for `O=S(=O)([O-])[O-].[Ni+2]` [NiSO4], the Relative remaining activity in the data set with Enzyme A′ (setting [2]) amounted to 59.7; in the data set with Enzyme A (setting [3]), 42.7; with Enzyme B (setting [4]), 79.4; with Enzyme A″ (setting [3]), 90.3.
For `[Cl][Cu][Cl]` [CuCL2], in that order: 0.0, 0.0, 0.0 and 0.0.
The matching figures for `[Cl][Fe][Cl]` [FeCl2]: 0.0, 16.6, 5.9 and 0.0.
As for `[Cl-].[Cl-].[Mg+2]` [MgCl2], the Relative remaining activity with Enzyme A′ (setting [2]) was determined as 85.3; in the data set on Enzyme A (setting [3]) it was 96.3; with Enzyme B (setting [4]), 100.0; in the data set with Enzyme A″ (setting [3]), 78.8.
In the case of `[F-].[Na+]` [NaF], the Relative remaining activity in the data set on Enzyme A′ (setting [5]) is on record as 97.1; in the data set with Enzyme A (setting [6]), 98.2; in the data set on Enzyme B (setting [7]), 100.8; in the data set with Enzyme A″ (setting [6]), 94.9.
As to `O=C(O)CI` [ICH2COONa], the Relative remaining activity in the data set with Enzyme A′ (setting [5]) came out at 78.3; in the data set on Enzyme A (setting [6]), 97.2; with Enzyme B (setting [7]), 100.2; with Enzyme A″ (setting [6]), 95.3.
Take `[Cl][Mn][Cl]` [MmCl2]: the Relative remaining activity in the data set on Enzyme A′ (setting [2]) came out at 45.7; in the data set on Enzyme A (setting [3]) it was 0.0; in the data set on Enzyme B (setting [4]) it was 0.0; in the data set with Enzyme A″ (setting [3]), 0.0.
Take `Cl.NO` [Hydroxylamine-HCl]: the Relative remaining activity with Enzyme A′ (0.5 mM compound, 30 minutes at 25° C., substrate n-Propanol, relative to blank incubation) came to 98.8; in the data set on Enzyme A (setting [8]), 104.6; with Enzyme B (0.5 mM compound, 30 minutes at 25° C., substrate D-Sorbitol, relative to blank incubation), 102.1; in the data set on Enzyme A″ (setting [8]) it was 97.2.
As to `[Ca+2].[Cl-].[Cl-]` [CaCl2], the Relative remaining activity amounted to 95.3 in the data set with Enzyme A′ (setting [2]), 98.8 in the data set with Enzyme A (setting [3]), 102.9 with Enzyme B (setting [4]) and 123.0 in the data set with Enzyme A″ (setting [3]).
As to `[Cl][Fe]([Cl])[Cl]` [FeCl3], the Relative remaining activity in the data set with Enzyme A′ (setting [2]) came to 0.0; in the data set on Enzyme A (setting [3]), 7.8; with Enzyme B (setting [4]) it was 0.0; with Enzyme A″ (setting [3]) it was 44.7.

B1: Gluconobacter oxydans DSM No. 4025 alcohol/aldehyde dehydrogenase Enzyme A, wild type, SEQ ID NO: 5 (Ketogulonicigenium vulgare WSH-001) (protein)
chain: QVTPVTDELLANPPAGEWISYGQNQENYRHSPLTQITTENVGQLQLVWARGMQPGKVQVTPLIHDGVMYLANPGDVIQAIDAKTGDLIWEHRRQLPNIATLNSFGEPTRGMALYGTNVYFVSWDNHLVALDTATGQVTFDVDRGQGEDMVSNSSGPIVANGVIVAGSTCQYSPFGCFVSGHDSATGEELWRNYFIPRAGEEGDETWGNDYEARWMTGAWGQITYDPVTNLVHYGSTAVGPASETQRGTPGGTLYGTNTRFAVRPDTGEIVWRHQTLPRDNWDQECTFEMMVTNVDVQPSTEMEGLQSINPNAATGERRVLTGVPCKTGTMWQFDAETGEFLWARDTNYQNMIESIDENGIVTVNEDAILKELDVEYDVCPTFLGGRDWPSAALNPDSGIYFIPLNNVCYDMMAVDQEFTSMDVYNTSNVTKLPPGKDMIGRIDAIDISTGRTLWSVERAAANYSPVLSTGGGVLFNGGTDRYFRALSQETGETLWQTRLATVASGQAISYEVDGMQYVAIAGGGVSYGSGLNSALAGERVDSTAIGNAVYVFALPQ
B1: in data set [1], the Km amounted to 36 mM mM.
